This note sets out measurements from ChEMBL document CHEMBL1201862, “PubChem BioAssay data set” (2004).

What is called AC50 is the concentration giving half of the maximal activity seen. What is called IC50 is the concentration needed to halve the response being measured. A word on the EC50: it is the concentration giving half of the maximal effect.

Active and inactive are the calls of the source. Where only a bound is given, the exact number is not on record here.

The target in assay [1] is Endoplasmic reticulum aminopeptidase 1 (Homo sapiens, UniProt Q9NZ08). The assay can be described thus: inhibition of human ERAP1 enzyme activity – biochemical, cherry-pick, set 2, plate reader, dose response (AID 743314).
Sequence of Endoplasmic reticulum aminopeptidase 1 (Q9NZ08 whole entry): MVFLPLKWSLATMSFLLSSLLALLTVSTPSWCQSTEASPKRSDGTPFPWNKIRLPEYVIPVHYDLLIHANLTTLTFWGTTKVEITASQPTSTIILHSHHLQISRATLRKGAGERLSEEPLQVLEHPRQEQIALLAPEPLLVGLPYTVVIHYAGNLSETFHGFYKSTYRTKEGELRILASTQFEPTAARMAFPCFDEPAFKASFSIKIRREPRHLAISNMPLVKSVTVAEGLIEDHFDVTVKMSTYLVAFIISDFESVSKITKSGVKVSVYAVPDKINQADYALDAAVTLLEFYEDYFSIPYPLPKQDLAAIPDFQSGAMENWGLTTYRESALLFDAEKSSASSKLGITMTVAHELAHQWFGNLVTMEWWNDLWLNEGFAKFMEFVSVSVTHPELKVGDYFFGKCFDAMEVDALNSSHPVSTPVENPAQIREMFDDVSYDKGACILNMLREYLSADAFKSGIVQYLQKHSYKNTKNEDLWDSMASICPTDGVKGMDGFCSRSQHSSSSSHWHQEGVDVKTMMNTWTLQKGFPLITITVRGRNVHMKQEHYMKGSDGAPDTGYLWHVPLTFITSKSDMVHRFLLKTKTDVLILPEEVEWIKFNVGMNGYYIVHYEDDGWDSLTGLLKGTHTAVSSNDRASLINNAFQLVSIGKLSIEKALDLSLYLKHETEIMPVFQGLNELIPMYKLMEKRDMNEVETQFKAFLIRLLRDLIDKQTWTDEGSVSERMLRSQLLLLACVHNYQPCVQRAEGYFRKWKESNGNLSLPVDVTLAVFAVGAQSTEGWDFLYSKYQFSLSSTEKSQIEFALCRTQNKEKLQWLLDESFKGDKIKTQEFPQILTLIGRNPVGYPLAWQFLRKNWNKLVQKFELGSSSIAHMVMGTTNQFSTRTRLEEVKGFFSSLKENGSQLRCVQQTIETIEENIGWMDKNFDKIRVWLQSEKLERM
For another assay, the target named is T1, Caspase-6 (Homo sapiens, UniProt P55212).
T1 sequence (P55212 whole entry): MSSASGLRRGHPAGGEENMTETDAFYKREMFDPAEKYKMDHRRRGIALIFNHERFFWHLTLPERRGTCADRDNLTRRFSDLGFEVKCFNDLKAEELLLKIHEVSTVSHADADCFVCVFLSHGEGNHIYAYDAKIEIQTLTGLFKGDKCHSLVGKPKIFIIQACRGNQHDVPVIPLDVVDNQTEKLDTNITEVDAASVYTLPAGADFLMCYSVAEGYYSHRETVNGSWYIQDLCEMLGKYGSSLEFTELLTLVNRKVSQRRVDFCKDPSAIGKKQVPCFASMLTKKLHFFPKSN
The assay can be described thus: inhibition of CASP6 peptide cleavage – biochemical, VEID-R110 fluorescence, cherry-pick, dose response (AID 720632).

Assay [2] deals with Disintegrin and metalloproteinase domain-containing protein 17 (Homo sapiens, UniProt P78536). In words: exosite inhibitors of ADAM17, dose response, biochemical (AID 743260).
Sequence of Disintegrin and metalloproteinase domain-containing protein 17 (P78536 whole entry, the tested form may be a part): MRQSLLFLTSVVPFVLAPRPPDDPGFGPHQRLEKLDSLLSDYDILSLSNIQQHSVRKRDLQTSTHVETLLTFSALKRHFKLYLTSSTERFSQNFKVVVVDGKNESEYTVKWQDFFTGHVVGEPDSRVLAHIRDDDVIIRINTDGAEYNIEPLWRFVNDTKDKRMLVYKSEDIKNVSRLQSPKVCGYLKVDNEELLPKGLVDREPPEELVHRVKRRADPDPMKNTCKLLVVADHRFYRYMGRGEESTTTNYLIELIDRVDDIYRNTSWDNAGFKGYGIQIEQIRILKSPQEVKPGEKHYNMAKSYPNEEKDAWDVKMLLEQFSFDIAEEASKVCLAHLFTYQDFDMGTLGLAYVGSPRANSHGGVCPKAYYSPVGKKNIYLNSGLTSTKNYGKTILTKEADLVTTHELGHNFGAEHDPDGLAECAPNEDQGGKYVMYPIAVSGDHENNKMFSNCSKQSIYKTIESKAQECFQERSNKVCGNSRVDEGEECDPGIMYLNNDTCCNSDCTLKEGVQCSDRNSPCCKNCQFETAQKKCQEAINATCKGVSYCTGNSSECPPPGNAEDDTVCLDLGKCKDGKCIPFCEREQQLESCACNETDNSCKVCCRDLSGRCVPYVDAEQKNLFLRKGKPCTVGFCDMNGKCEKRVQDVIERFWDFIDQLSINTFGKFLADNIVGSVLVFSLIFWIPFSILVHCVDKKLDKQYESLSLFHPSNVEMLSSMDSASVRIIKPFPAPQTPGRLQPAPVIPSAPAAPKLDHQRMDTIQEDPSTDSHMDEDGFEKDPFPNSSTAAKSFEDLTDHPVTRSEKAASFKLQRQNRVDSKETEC
Assay [3] can be described thus: inhibition of ADAM10 peptide cleavage – biochemical, FRET peptide substrate, recombinant human ADAM10, selectivity assay for ADAM17 exosite inhibitor project, dose response (AID 743259).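 Note: ADAM10 enzyme cleaving a FRET peptide substrate.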
Assay [4] deals with T2, Replicative DNA helicase DnaB (Mycobacterium tuberculosis, UniProt P9WMR3).
T2 sequence (P9WMR3 whole entry): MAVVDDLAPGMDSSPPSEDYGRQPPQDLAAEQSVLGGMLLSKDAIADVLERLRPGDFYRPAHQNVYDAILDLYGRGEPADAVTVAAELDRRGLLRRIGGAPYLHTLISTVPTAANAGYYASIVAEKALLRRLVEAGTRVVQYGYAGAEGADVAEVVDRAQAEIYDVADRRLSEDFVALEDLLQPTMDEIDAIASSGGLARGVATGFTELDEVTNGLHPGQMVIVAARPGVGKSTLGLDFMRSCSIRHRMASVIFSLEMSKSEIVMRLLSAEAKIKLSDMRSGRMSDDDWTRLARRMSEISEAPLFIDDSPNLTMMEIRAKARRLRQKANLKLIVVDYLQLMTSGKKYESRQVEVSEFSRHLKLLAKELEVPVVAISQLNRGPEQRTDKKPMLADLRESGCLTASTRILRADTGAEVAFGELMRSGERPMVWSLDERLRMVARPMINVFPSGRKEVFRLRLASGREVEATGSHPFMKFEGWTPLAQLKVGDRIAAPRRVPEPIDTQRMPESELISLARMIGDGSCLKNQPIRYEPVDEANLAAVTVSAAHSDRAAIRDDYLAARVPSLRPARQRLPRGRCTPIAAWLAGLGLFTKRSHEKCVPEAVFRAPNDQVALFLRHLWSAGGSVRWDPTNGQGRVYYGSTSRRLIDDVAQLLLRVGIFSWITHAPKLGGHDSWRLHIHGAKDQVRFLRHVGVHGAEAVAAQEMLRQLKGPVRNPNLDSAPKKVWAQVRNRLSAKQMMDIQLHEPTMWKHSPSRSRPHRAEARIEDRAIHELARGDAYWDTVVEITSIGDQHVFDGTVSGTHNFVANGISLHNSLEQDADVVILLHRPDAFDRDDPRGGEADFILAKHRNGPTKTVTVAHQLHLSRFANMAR
In words: DnaB intein splicing inhibitors, dose response, biochemical, cell-free fluorescence (AID 449749). In kind it is functional.

Assay [5] concerns the target T3, Sentrin-specific protease 8 (Homo sapiens, UniProt Q96LD8).
T3 sequence (Q96LD8 whole entry): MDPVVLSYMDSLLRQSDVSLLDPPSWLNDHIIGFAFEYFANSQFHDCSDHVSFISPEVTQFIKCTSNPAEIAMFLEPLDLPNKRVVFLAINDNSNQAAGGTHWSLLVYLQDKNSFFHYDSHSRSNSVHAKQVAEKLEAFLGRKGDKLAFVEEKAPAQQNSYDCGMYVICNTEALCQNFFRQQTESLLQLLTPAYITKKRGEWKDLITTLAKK
In kind it is functional.

For assay [6], the target named is T3, Sentrin-specific protease 8. The assay is classed as functional. The source holds these as a separate data set.
The target of assay [7] is T4, Tyrosyl-DNA phosphodiesterase 2 (Homo sapiens, UniProt O95551).
T4 sequence (O95551 whole entry): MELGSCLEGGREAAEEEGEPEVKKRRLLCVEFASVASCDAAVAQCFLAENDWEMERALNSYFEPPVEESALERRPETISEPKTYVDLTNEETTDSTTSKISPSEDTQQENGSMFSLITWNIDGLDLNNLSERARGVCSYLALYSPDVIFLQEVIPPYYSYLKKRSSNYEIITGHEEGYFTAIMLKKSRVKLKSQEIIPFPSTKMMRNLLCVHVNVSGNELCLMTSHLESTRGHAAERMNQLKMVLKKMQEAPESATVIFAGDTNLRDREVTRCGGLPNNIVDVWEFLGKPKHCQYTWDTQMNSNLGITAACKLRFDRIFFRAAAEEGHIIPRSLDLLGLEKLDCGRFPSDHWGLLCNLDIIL
The assay can be described thus: potency against TDP2 phosphodiesterase activity – biochemical, epi absorbance, IC50, dose response (AID 743297).

Assay [8] is described as follows: microbe, parasite or virus in culture. In kind it is functional. Conditions: Mycobacterium tuberculosis.
The target of a further assay is T5, Caspase-3 (Homo sapiens, UniProt P42574).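 Note: Dose-response selectivity test against caspase-3 for candidate inhibitors of sentrin-specific proteases (SENPs).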
T5 sequence (P42574 whole entry): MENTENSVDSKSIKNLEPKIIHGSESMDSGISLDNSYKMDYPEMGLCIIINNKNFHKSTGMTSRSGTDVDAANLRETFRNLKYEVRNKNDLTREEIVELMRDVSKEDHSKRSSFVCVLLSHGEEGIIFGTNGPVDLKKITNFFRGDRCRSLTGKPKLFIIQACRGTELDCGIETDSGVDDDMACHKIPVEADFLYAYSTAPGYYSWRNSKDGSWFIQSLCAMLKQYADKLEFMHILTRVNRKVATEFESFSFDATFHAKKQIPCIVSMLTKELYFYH
The assay is classed as functional.

For assay [9], the target named is T6, Sentrin-specific protease 7 (Homo sapiens, UniProt Q9BQF6).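 Note: Luminescence-based dose-response confirmation of ultra-high-throughput screening hits, measuring inhibition of SENP7.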
T6 sequence (Q9BQF6 whole entry): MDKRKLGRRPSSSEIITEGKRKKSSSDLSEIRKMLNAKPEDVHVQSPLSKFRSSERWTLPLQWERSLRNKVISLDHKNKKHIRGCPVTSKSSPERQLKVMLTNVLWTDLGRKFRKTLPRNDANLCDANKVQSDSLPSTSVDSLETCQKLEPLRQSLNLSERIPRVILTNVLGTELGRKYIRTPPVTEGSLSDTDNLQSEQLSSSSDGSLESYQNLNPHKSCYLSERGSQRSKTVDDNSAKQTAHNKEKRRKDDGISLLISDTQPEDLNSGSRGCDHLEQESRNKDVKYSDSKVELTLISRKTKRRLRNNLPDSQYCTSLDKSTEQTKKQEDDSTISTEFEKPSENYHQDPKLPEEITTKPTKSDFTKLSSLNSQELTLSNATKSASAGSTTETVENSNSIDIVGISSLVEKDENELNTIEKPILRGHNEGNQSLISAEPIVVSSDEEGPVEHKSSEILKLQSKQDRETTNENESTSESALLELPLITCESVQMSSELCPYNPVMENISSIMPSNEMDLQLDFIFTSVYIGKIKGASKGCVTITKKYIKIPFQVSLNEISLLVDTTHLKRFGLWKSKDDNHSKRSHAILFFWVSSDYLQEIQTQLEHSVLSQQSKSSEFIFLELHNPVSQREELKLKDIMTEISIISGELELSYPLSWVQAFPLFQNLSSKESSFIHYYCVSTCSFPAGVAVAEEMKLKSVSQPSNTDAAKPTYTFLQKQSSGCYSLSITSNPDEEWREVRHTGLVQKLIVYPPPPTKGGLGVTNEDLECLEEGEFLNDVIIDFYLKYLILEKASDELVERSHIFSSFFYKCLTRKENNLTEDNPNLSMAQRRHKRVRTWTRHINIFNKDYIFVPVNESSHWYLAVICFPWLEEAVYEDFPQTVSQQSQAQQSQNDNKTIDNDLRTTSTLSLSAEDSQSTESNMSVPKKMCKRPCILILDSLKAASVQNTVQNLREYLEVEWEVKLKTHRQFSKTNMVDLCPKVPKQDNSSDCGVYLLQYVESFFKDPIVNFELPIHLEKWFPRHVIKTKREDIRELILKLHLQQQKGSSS
In kind it is functional.

The target in assay [10] is T7, Heat shock factor protein 1 (Mus musculus, UniProt P38532).
T7 sequence (P38532 whole entry): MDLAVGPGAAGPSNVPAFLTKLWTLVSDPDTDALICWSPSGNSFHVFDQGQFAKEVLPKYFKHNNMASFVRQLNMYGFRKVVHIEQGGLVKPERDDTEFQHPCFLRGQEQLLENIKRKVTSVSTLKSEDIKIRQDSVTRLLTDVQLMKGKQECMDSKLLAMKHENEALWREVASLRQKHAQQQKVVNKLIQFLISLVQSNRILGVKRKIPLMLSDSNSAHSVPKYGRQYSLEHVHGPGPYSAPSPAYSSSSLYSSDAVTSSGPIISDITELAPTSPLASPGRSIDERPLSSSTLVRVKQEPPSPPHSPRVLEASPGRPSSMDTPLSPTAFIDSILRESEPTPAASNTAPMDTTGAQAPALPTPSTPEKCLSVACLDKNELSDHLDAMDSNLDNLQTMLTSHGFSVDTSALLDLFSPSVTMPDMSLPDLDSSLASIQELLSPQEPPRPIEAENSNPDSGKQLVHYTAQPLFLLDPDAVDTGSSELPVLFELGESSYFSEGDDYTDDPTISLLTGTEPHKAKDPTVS
In words: enhancement of HSF1-driven luciferase signal – cell-based, NIH3T3, luminescence, dose retest, confirmation (AID 435004).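 Note: stress induced by proteasome inhibitor MG132 added 30 min after compound; luciferase reporter driven by HSF1 response element in NIH3T3 cells; actives raise luminescence as potentiators of the MG132 stress response.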 The assay is classed as functional.

Assay [11] concerns the target T8, Sentrin-specific protease 6 (Homo sapiens, UniProt Q9GZR1).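 Note: Luminescence-based dose-response confirmatory assay of SENP6 inhibition, following up an ultra-high-throughput screen.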
T8 sequence (Q9GZR1 whole entry): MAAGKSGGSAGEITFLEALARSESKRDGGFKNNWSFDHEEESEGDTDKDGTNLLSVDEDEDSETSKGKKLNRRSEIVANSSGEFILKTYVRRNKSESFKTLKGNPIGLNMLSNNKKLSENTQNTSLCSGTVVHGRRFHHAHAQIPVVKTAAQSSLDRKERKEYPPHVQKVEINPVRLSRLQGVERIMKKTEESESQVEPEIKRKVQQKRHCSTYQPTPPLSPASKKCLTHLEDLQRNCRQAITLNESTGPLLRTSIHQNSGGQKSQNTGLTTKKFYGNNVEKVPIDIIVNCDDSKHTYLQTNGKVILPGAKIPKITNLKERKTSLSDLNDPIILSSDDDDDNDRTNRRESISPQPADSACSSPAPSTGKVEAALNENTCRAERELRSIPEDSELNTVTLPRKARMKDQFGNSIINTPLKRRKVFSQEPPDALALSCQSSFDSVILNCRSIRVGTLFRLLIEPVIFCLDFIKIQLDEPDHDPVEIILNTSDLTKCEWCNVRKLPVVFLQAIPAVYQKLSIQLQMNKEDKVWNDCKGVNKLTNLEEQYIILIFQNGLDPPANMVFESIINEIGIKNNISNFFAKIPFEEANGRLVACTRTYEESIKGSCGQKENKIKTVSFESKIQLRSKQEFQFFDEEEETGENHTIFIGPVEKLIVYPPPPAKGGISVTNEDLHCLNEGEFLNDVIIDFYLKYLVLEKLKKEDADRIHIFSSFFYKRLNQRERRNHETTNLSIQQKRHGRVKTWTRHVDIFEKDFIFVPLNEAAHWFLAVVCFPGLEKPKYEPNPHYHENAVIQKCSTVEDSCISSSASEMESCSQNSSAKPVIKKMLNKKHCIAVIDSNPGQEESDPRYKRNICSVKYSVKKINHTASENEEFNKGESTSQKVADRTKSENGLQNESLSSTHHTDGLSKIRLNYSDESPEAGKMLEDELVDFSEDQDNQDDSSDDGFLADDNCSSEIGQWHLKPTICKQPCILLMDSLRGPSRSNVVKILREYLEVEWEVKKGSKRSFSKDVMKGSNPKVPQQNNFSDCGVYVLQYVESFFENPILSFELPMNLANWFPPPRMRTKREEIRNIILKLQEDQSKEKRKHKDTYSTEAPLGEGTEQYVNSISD
The assay is classed as functional.

Assay [12] deals with T3, Sentrin-specific protease 8. The assay is classed as functional. This is another data set of the same source.
The next assay deals with INS1. In words: INS-1E survival protection against cytokine death – cell-based, luminescence, retest, dose response (AID 449756).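 Note: cell death triggered by IL-1 beta plus TNF-alpha plus IFN-gamma mixture; protective hits raise ATP signal compared with cytokine alone wells.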 The assay is classed as functional. As to conditions: Rattus norvegicus.

On to `CC(=O)N1[C@@H]2c3ccc(/C=C/c4ccccc4)c(=O)n3C[C@H]1[C@H](CO)[C@H]2C(=O)N(C)C`, for which the AC50 in [1] was 4.5 µM (active).

`Cc1ccc(NC(=O)c2cc(S(=O)(=O)NCC3CCCO3)ccc2F)cc1` (centres undefined): the AC50 at Caspase-6 is 45.9 µM (active).

`CN1[C@@H]2Cn3c(ccc(/C=C/c4ccccc4)c3=O)[C@H]1[C@@H](C(=O)NC1CCCC1)[C@@H]2CO`: the AC50 in assay [1] was 9.03 µM (active).

Regarding `Clc1ccc(OCCOCCOc2cccc3cccnc23)c(Br)c1`, the IC50 in assay [2] and in assay [3] was > 69.5 µM (inactive) each time.

On to `Nc1ccc(N2CCOCC2)c2nonc12`, for which the AC50 in assay [4] is 18.8 µM (active). In addition, the IC50 in assay [5] is 3.67 µM (active); in assay [6] it was 2.98 µM (active); in assay [7], > 128 µM (inactive).

As to `S=C(Nc1ccc(Cl)cc1)Nc1cccc2cnccc12`, in assay [8], the CC50 was > 40 µM (active). The IC50 was 11.7 µM (active) at Caspase-3; 6.24 µM (active) in assay [9]; 2.87 µM (active) in assay [11]; 5.49 µM (active) in assay [12]; 130 µM (inactive) in assay [7]. Further, the EC50 in [10] is > 260 µM (inactive). Moreover, in the assay on INS1, the AC50 is > 260 µM (inactive).

With `COc1ccc(NC(C)C(=O)N/N=C/c2ccccc2OCc2ccc(Br)cc2)cc1` (centres undefined), the IC50 in assay [2] and in assay [3] was > 69.5 µM (inactive) each time.
